Experimental data published in patent US20090247559A1 (Exelixis, Inc., priority 2007, published 2009).

Assays:
[1] = target: PIM (PIM-1, PIM-2, and/or PIM-3); assay: PIM-1, PIM-2 and PIM-3 inhibition, biochemical chemiluminescence assays (Kinase Glo, IC50 determination); settings: Table 1 activity class; PIM refers to PIM-1, PIM-2, and/or PIM-3; read-out: PIM IC50 (Activity B)
CK2 = CK2 (Homo sapiens, UniProt P68400); assay: CK2 inhibition, biochemical chemiluminescence holoenzyme assay (Kinase Glo, IC50 determination); settings: Table 1 activity class; symbol given only if active; read-out: CK2 IC50 (Activity C)
Method in brief: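 Holoenzyme CK2 assay; compounds pre-incubated with substrate and enzyme, then reacted 150 min at 24-27° C. Remaining ATP measured as luminescence with Kinase Glo, and IC50 derived from the signal.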

Chain of CK2 (P68400 whole entry): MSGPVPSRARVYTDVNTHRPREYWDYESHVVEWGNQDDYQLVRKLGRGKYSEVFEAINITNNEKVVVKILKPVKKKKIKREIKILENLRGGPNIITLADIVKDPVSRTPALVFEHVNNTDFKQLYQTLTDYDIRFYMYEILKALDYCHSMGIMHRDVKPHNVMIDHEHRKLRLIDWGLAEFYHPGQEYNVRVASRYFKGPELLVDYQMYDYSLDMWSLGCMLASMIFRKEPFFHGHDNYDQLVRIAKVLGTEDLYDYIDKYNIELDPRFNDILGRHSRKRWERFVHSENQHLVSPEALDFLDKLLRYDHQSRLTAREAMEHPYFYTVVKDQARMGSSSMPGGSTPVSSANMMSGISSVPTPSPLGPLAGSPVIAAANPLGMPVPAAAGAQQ
Chain of CK2 (P67870 whole entry partner): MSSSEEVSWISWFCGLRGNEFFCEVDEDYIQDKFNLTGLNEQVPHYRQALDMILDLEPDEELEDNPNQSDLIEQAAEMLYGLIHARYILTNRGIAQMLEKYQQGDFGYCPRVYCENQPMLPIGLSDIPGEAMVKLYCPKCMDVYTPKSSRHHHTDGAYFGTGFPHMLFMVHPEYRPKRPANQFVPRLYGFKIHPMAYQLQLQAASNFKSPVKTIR

| SMILES | IC50 [1] | IC50 (CK2) |
| --- | --- | --- |
| Nc1cc(C(=O)Nc2ccc(-c3nc4c(oc5ccc(Br)cc54)c(=O)[nH]3)c(Cl)c2)ccn1 [Compound 284, 2-amino-N-[4-(8-bromo-4-oxo-3,4-dihydro[1]benzofuro[3,2-d]pyrimidin-2-yl)-3-chlorophenyl]pyridine-4-carboxamide] | < 10 µM | < 10 µM |
| COc1ccc(C(=O)Nc2ccc(-c3nc4c(oc5ccc(Br)cc54)c(=O)[nH]3)c(Cl)c2)cc1 [Compound 285, N-[4-(8-bromo-4-oxo-3,4-dihydro[1]benzofuro[3,2-d]pyrimidin-2-yl)-3-chlorophenyl]-4-(methyloxy)benzamide] | < 10 µM | < 10 µM |
| O=C1CC(O)CN1Cc1nc2c(oc3ccc(Br)cc32)c(=O)[nH]1 (stereo not shown) [Compound 286, 8-bromo-2-[(4-hydroxy-2-oxopyrrolidin-1-yl)methyl][1]benzofuro[3,2-d]pyrimidin-4(3H)-one] | < 10 µM | < 10 µM |
| O=c1[nH]c(COCC2CCNC2)nc2c1oc1ccc(Br)cc12 (stereo not shown) [Compound 288, 8-bromo-2-{[(pyrrolidin-3-ylmethyl)oxy]methyl}[1]benzofuro[3,2-d]pyrimidin-4(3H)-one] | < 10 µM | < 10 µM |
| O=C(Nc1ccc(-c2nc3c(oc4ccc(Br)cc43)c(=O)[nH]2)c(Cl)c1)c1cccnc1 [Compound 292, N-[4-(8-bromo-4-oxo-3,4-dihydro[1]benzofuro[3,2-d]pyrimidin-2-yl)-3-chlorophenyl]pyridine-3-carboxamide] | < 10 µM | < 10 µM |
| CCN1C[C@@H]2C[C@H]1CN2Cc1nc2c(oc3ccc(Br)cc32)c(=O)[nH]1 [Compound 295, 8-bromo-2-{[(1S,4S)-5-ethyl-2,5-diazabicyclo[2.2.1]hept-2-yl]methyl}[1]benzofuro[3,2-d]pyrimidin-4(3H)-one] | < 10 µM | < 10 µM |
| CC(C)(C)OC(=O)N1CCOC(c2nc3c(oc4ccc(Br)cc43)c(=O)[nH]2)C1 (stereo not shown) [Compound 297, 1,1-Dimethylethyl 2-(8-bromo-4-oxo-3,4-dihydro[1]benzofuro[3,2-d]pyrimidin-2-yl)morpholine-4-carboxylate] | < 10 µM | < 10 µM |
| O=c1[nH]c(-c2cc(OC3CCNCC3)no2)nc2c1oc1ccc(Br)cc12 [Compound 299, 8-Bromo-2-[3-(piperidin-4-yloxy)isoxazol-5-yl][1]benzofuro[3,2-d]pyrimidin-4(3H)-one] | < 10 µM | < 10 µM |
| O=c1[nH]c(-c2ccc3c(c2)CCNC3)nc2c1oc1ccc(Br)cc12 [Compound 300, 8-Bromo-2-(1,2,3,4-tetrahydroisoquinolin-6-yl)[1]benzofuro[3,2-d]pyrimidin-4(3H)-one] | < 10 µM | < 10 µM |
| O=c1[nH]c(-c2ccc(N3CCNCC3)cc2)nc2c1oc1ccc(Br)cc12 [Compound 303, 8-Bromo-2-(4-piperazin-1-ylphenyl)[1]benzofuro[3,2-d]pyrimidin-4(3H)-one] | < 10 µM | < 10 µM |
| O=C1CC(c2nc3c(oc4ccc(Br)cc43)c(=O)[nH]2)CN1C1CCNCC1 (stereo not shown) [Compound 304, 8-Bromo-2-(5-oxo-1-piperidin-4-ylpyrrolidin-3-yl)[1]benzofuro[3,2-d]pyrimidin-4(3H)-one] | < 10 µM | < 10 µM |
| O=c1[nH]c(CN2CCCC(CO)C2)nc2c1oc1ccc(Br)cc12 (stereo not shown) [Compound 306, 8-bromo-2-{[3-(hydroxymethyl)piperidin-1-yl]methyl}[1]benzofuro[3,2-d]pyrimidin-4(3H)-one] | < 10 µM | < 10 µM |
| O=c1[nH]c(NCCO)nc2c1oc1ccc(Br)cc12 [Compound 309, 8-Bromo-2-[(2-hydroxyethyl)amino][1]benzofuro[3,2-d]pyrimidin-4(3H)-one] | < 10 µM | < 10 µM |
| O=C(O)Cc1nc2c(oc3ccc(Br)cc32)c(=O)[nH]1 [Compound 310, (8-bromo-4-oxo-3,4-dihydro[1]benzofuro[3,2-d]pyrimidin-2-yl)acetic acid] | < 10 µM | < 10 µM |
| O=C(Nc1ccc(Cl)c(-c2nc3c(oc4ccc(Br)cc43)c(=O)[nH]2)c1)c1ccncc1 [Compound 314, N-[3-(8-bromo-4-oxo-3,4-dihydro[1]benzofuro[3,2-d]pyrimidin-2-yl)-4-chlorophenyl]pyridine-4-carboxamide] | < 10 µM | < 10 µM |
| O=c1[nH]c(CN2CCC(F)(F)C2)nc2c1oc1ccc(Br)cc12 [Compound 318, 8-bromo-2-[(3,3-difluoropyrrolidin-1-yl)methyl][1]benzofuro[3,2-d]pyrimidin-4(3H)-one] | < 10 µM | < 10 µM |

| SMILES | IC50 [1] | IC50 (CK2) |
| --- | --- | --- |
| O=C(NCc1ccncc1)C1CCN(Cc2nc3c(oc4ccc(Br)cc43)c(=O)[nH]2)C1 (stereo not shown) [Compound 325, 1-[(8-bromo-4-oxo-3,4-dihydro[1]benzofuro[3,2-d]pyrimidin-2-yl)methyl]-N-(pyridin-4-ylmethyl)pyrrolidine-3-carboxamide] | < 10 µM | < 10 µM |
| O=C(Nc1ccc(Cl)c(-c2nc3c(oc4ccc(Br)cc43)c(=O)[nH]2)c1)c1ccnc(Cl)c1 [Compound 326, N-[3-(8-bromo-4-oxo-3,4-dihydro[1]benzofuro[3,2-d]pyrimidin-2-yl)-4-chlorophenyl]-2-chloropyridine-4-carboxamide] | < 10 µM | < 10 µM |
| O=C(Nc1ccc(Cl)c(-c2nc3c(oc4ccc(Br)cc43)c(=O)[nH]2)c1)c1cncnc1 [Compound 329, N-[3-(8-bromo-4-oxo-3,4-dihydro[1]benzofuro[3,2-d]pyrimidin-2-yl)-4-chlorophenyl]pyrimidine-5-carboxamide] | < 10 µM | < 10 µM |
| COC(=O)c1ccc(C(=O)Nc2ccc(-c3nc4c(oc5ccc(Br)cc54)c(=O)[nH]3)c(Cl)c2)nc1 [Compound 334, methyl 6-({[4-(8-bromo-4-oxo-3,4-dihydro[1]benzofuro[3,2-d]pyrimidin-2-yl)-3-chlorophenyl]amino}carbonyl)pyridine-3-carboxylate] | < 10 µM | < 10 µM |
| COc1cc(C(=O)Nc2ccc(-c3nc4c(oc5ccc(Br)cc54)c(=O)[nH]3)c(Cl)c2)ccn1 [Compound 335, N-[4-(8-bromo-4-oxo-3,4-dihydro[1]benzofuro[3,2-d]pyrimidin-2-yl)-3-chlorophenyl]-2-(methyloxy)pyridine-4-carboxamide] | < 10 µM | < 10 µM |
| O=C(Nc1ccc(-c2nc3c(oc4ccc(Br)cc43)c(=O)[nH]2)c(Cl)c1)c1ccc(Br)cn1 [Compound 336, 5-bromo-N-[4-(8-bromo-4-oxo-3,4-dihydro[1]benzofuro[3,2-d]pyrimidin-2-yl)-3-chlorophenyl]pyridine-2-carboxamide] | < 10 µM | < 10 µM |
| COc1cc(C(=O)Nc2ccc(Cl)c(-c3nc4c(oc5ccc(Br)cc54)c(=O)[nH]3)c2)ccn1 [Compound 337, N-[3-(8-bromo-4-oxo-3,4-dihydro[1]benzofuro[3,2-d]pyrimidin-2-yl)-4-chlorophenyl]-2-(methyloxy)pyridine-4-carboxamide] | < 10 µM | < 10 µM |
| O=C(Nc1ccc(-c2nc3c(oc4ccc(Br)cc43)c(=O)[nH]2)c(Cl)c1)c1ccc(Cl)cn1 [Compound 339, N-[4-(8-bromo-4-oxo-3,4-dihydro[1]benzofuro[3,2-d]pyrimidin-2-yl)-3-chlorophenyl]-5-chloropyridine-2-carboxamide] | < 10 µM | < 10 µM |
| O=C(Nc1ccc(Cl)c(-c2nc3c(oc4ccc(Br)cc43)c(=O)[nH]2)c1)c1ccc(Cl)cn1 [Compound 340, N-[3-(8-bromo-4-oxo-3,4-dihydro[1]benzofuro[3,2-d]pyrimidin-2-yl)-4-chlorophenyl]-5-chloropyridine-2-carboxamide] | < 10 µM | < 10 µM |
| O=C(Nc1ccc(-c2nc3c(oc4ccc(Br)cc43)c(=O)[nH]2)c(Cl)c1)c1ccoc1 [Compound 341, N-[4-(8-bromo-4-oxo-3,4-dihydro[1]benzofuro[3,2-d]pyrimidin-2-yl)-3-chlorophenyl]furan-3-carboxamide] | < 10 µM | < 10 µM |
| O=C(Nc1ccc(Cl)c(-c2nc3c(oc4ccc(Br)cc43)c(=O)[nH]2)c1)c1ccoc1 [Compound 342, N-[3-(8-bromo-4-oxo-3,4-dihydro[1]benzofuro[3,2-d]pyrimidin-2-yl)-4-chlorophenyl]furan-3-carboxamide] | < 10 µM | < 10 µM |
| O=C(Nc1ccc(-c2nc3c(oc4ccc(Br)cc43)c(=O)[nH]2)c(Cl)c1)c1ccc(CO)cn1 [Compound 345, N-[4-(8-bromo-4-oxo-3,4-dihydro[1]benzofuro[3,2-d]pyrimidin-2-yl)-3-chlorophenyl]-5-(hydroxymethyl)pyridine-2-carboxamide] | < 10 µM | < 10 µM |
| Cn1nc(OC2CCNCC2)cc1-c1nc2c(oc3ccc(Br)cc32)c(=O)[nH]1 [Compound 351, 8-Bromo-2-[1-methyl-3-(piperidin-4-yloxy)-1H-pyrazol-5-yl][1]benzofuro[3,2-d]pyrimidin-4(3H)-one] | < 10 µM | < 10 µM |
| NCc1nc(-c2nc3c(oc4ccc(Br)cc43)c(=O)[nH]2)cs1 [Compound 352, 2-[2-(Aminomethyl)-1,3-thiazol-4-yl]-8-bromo[1]benzofuro[3,2-d]pyrimidin-4(3H)-one] | < 10 µM | < 10 µM |
| Nc1ccc(-c2nc3c(oc4ccc(Br)cc43)c(=O)[nH]2)cc1 [Compound 354, 2-(4-Aminophenyl)-8-bromo[1]benzofuro[3,2-d]pyrimidin-4(3H)-one] | < 10 µM | < 10 µM |
| Nc1cccc(-c2nc3c(oc4ccc(Br)cc43)c(=O)[nH]2)c1 [Compound 355, 2-(3-Aminophenyl)-8-bromo[1]benzofuro[3,2-d]pyrimidin-4(3H)-one] | < 10 µM | < 10 µM |
